Test results reported in patent US20090143279A1 (priority 2007, published 2009).
Read-outs that look alike come from different tables or passages of the source.

Tests used:
[1] = tested on: mitochondrial membrane potential; type: cell-based, mouse
[2] = tested on: cellular dehydrogenase activity
[3] = tested on: OXPHOS gene expression; type: cell-based, mouse
[4] = tested on: mtOXPHOS transcripts; type: cell-based, mouse
[5] = tested on: nuOXPHOS transcripts; type: cell-based, mouse
[6] = tested on: reactive oxygen species; type: cell-based, mouse
[7] = tested on: cytochrome c; type: cell-based, mouse
[8] = tested on: C2C12 myotubes
[9] = 20 μM, composite Z-score vs DMSO
[10] = 24.06 μM, composite Z-score vs DMSO
[11] = normalized composite Z-score vs mock-treated (DMSO) wells, Conc 20 μM
[12] = normalized score (composite Z-score vs DMSO mock-treated wells), compound concentration (μM)
[13] = 13.86 μM, composite Z-score vs DMSO
[14] = composite Z-score vs mock-treated (DMSO) wells, Conc 20 μM
[15] = composite Z-score vs DMSO, Conc 20 μM
[16] = composite Z-score vs DMSO wells, Conc 20 μM

`CC[N+](C)(C)c1cccc(O)c1` [edrophonium] showed a ΔΨm [1, 9] of 0.391, a ΔΨm [1, 10] of −0.161 and an MTT [2, 9] of −0.015. For the same molecule, the MTT [2, 10] was 0.901, the GE-HTS [3, 9] was −0.806 and the GE-HTS [3, 10] was −0.803. For the same molecule, the mitoOX [4, 9] was −0.183, the mitoOX [4, 10] was −1.083 and the nucOX [5, 9] was −1.001. The nucOX [5, 10] was −0.611, the ROS [6, 9] was 1.006 and the ROS [6, 10] was 0.343. The cyt c [7, 9] was 1.045, the cyt c [7, 10] was 0.177 and the Viability [8, 9] was −0.291. The Viability [8, 10] was 0.250.

`COc1ccc(-c2cc(=O)c3ccc(OC)cc3o2)cc1` [4,7-dimethoxyflavone] was tested, and the ΔΨm [1, 11] was −0.795, the MTT [2, 11] was −0.472 and the GE-HTS [3, 11] was 1.306. The mitoOX [4, 11] was 0.539, the nucOX [5, 11] was 1.526 and the ROS [6, 11] was 1.067. The cyt c [7, 11] was 0.031 and the Viability [8, 11] was −0.067.

`C=C1CCC(=O)C(C)CCC2C1CC2(C)C` (centres unmarked) [dihydrocaryophyllen-5-one] was tested, and the ΔΨm [1, 11] was 0.090, the MTT [2, 11] was −1.453 and the GE-HTS [3, 11] was −0.496. For the same molecule, the mitoOX [4, 11] was −0.317, the nucOX [5, 11] was −0.513 and the ROS [6, 11] was 0.483. For the same molecule, the cyt c [7, 11] was 0.620 and the Viability [8, 11] was 0.219.

Work on `OCC(O)COc1ccc(Cl)cc1` (centres unmarked) [chlorphensin] yielded a ΔΨm [1, 12] of −0.419, an MTT [2, 12] of −0.356 and a GE-HTS [3, 12] of −0.696. It also gave a mitoOX [4, 12] of −0.766, a nucOX [5, 12] of −0.613 and an ROS [6, 12] of 0.692. It also gave a cyt c [7, 12] of −0.522 and a Viability [8, 12] of −1.132.

With `CCCCN1CCCCC1C(=O)Nc1c(C)cccc1C` (centres unmarked) [bupivacaine] the ΔΨm [1, 13] was −0.938, the ΔΨm [1, 9] was 0.084 and the MTT [2, 13] was −1.440. For the same molecule, the MTT [2, 9] was −0.841, the GE-HTS [3, 13] was −0.227 and the GE-HTS [3, 9] was 0.392. The mitoOX [4, 13] was 0.002, the mitoOX [4, 9] was 0.009 and the nucOX [5, 13] was −0.316. For the same molecule, the nucOX [5, 9] was 0.548, the ROS [6, 13] was 0.545 and the ROS [6, 9] was 0.801. It also gave a cyt c [7, 13] of −0.058, a cyt c [7, 9] of 0.190 and a Viability [8, 13] of −0.663. For the same molecule, the Viability [8, 9] was −1.202.

`CC1=C2C(O)C(=O)OC3CC4C(C)(C)C(=O)C=C[C@]4(C)C(CC1)[C@]23C` (some centres unmarked) [merogedunin] showed a ΔΨm [1, 11] of −0.214, an MTT [2, 11] of −0.645 and a GE-HTS [3, 11] of −0.254. The mitoOX [4, 11] was −0.350, the nucOX [5, 11] was −0.160 and the ROS [6, 11] was 0.741. It also gave a cyt c [7, 11] of 0.490 and a Viability [8, 11] of −0.222.

For `Cc1ccc2c(c1)CC[C@H]1CC(=O)CC[C@]21C`, the ΔΨm [1, 14] was −0.470, the MTT [2, 14] was −2.132 and the GE-HTS [3, 14] was 0.903. For the same molecule, the mitoOX [4, 14] was 0.748, the nucOX [5, 14] was 0.870 and the ROS [6, 14] was 0.072. The cyt c [7, 14] was 0.009 and the Viability [8, 14] was −0.093.

`C[C@@H]1C[C@H]2CC(=O)[C@H]3CCCN4CCC[C@H]2[C@]34C1` [lycopodine] was tested, and the ΔΨm [1, 15] was −0.239, the MTT [2, 15] was −1.139 and the GE-HTS [3, 15] was −0.150. The mitoOX [4, 15] was −0.411, the nucOX [5, 15] was −0.028 and the ROS [6, 15] was 0.500. For the same molecule, the cyt c [7, 15] was −0.093 and the Viability [8, 15] was −0.466.

With `CC(=O)O[C@H]1C[C@H](O[C@H]2[C@@H](O)C[C@H](O[C@H]3[C@@H](O)C[C@H](O[C@H]4CC[C@@]5(C)[C@H](CC[C@@H]6[C@@H]5C[C@@H](O)[C@]5(C)[C@@H](C7=CC(=O)OC7)CC[C@]65O)C4)O[C@@H]3C)O[C@@H]2C)O[C@H](C)[C@H]1O[C@@H]1O[C@H](CO)[C@@H](O)[C@H](O)[C@H]1O` [lanatoside C] the ΔΨm [1, 16] was −1.105, the MTT [2, 16] was −0.887 and the GE-HTS [3, 16] was −0.931. The mitoOX [4, 16] was −0.935, the nucOX [5, 16] was −0.844 and the ROS [6, 16] was −0.033. It also gave a cyt c [7, 16] of 0.664 and a Viability [8, 16] of −0.704.

Work on `Cc1onc(-c2ccccc2)c1C(=O)N[C@@H]1C(=O)N2[C@@H]1SC(C)(C)[C@@H]2C(=O)[O-].[Na+]` [oxacillin sodium] yielded a ΔΨm [1, 15] of −0.432, an MTT [2, 15] of −1.064 and a GE-HTS [3, 15] of −0.790. It also gave a mitoOX [4, 15] of −0.881, a nucOX [5, 15] of −0.629 and an ROS [6, 15] of 0.572. It also gave a cyt c [7, 15] of −0.361 and a Viability [8, 15] of −1.101.

`CC1=C2C(=CO[C@H](C)[C@H]2C)C(O)=C(C(=O)O)C1=O` [citrinin] showed a ΔΨm [1, 16] of −0.590, an MTT [2, 16] of −0.980 and a GE-HTS [3, 16] of 0.608. For the same molecule, the mitoOX [4, 16] was 0.218, the nucOX [5, 16] was 0.730 and the ROS [6, 16] was 0.122. For the same molecule, the cyt c [7, 16] was 0.012 and the Viability [8, 16] was −0.040.
